“Also recorded” adds a separate entry of the source.
Key:
P. aeruginosa PA14 [1] = assay: Dose response and checkerboard assays against PA14; assay type: cell-based, Pseudomonas aeruginosa; conditions: PA14; for interaction with DSX: 2D checkerboard; for effect of 100 μM Fe^3+ on inhibitory activity: VAN + compound checkerboards; for synergy with TS: IC50 isobolograms, 10:90; for relative potency of synergy with TS: checkerboards, isobolograms and CI values
Method: (§1) Checkerboard assays were set-up using Nunc 96-well plates in an 8-well by 8-well format. Two columns were allocated for vehicle controls and two columns for sterility controls. Vehicle controls contained 2 μL DMSO plus 2 μL DFP solvent for checkerboards with TS and DFP or 4 μL DMSO for TS and DSX, in 146 μL of 10:90 medium or 10% serum inoculated with PA14 or PAO1-KP as described in Growth Curves. Sterile controls contained the same components in 10:90 medium or 10% serum, without cells. Serial dilutions of TS—with 17 μg/mL being the highest final concentration—were added along the y axis of the checkerboard (increasing concentration from bottom to top) whereas serial dilutions of DFP or DSX—with 512 μg/mL being the highest final concentration—were added along the x axis (increasing concentration from left to right). The final volume of each well was 150 μL and each checkerboard was repeated at least three times. Plates were incubated and the final OD600 determined as detailed above.
Culture conditions, growth assays, dose response and checkerboard assays using P. aeruginosa PA14 were performed as described in Example 1. Briefly, overnight cultures were grown in LB for 16 h, 37° C., 200 rpm then subcultured (1:500 dilution) into 10:90 for 6 h. Subcultures were standardized to OD600 of 0.10 and diluted 1:500 in fresh 10:90 before use. For the dose response assay, serial dilutions of compounds were added at 75 times the final concentration and diluted with 10:90 with cells to reach the desired final concentration. This was done in triplicate for technical replicates. Vehicle and sterile controls were included. The checkerboard assay was done similarly to the dose response assay but in an 8×8 format in a 96-well Nunc plate, with concentration of one drug increasing along the y-axis and the other along the x-axis. Sterility and vehicle controls were included with two columns allocated for each control. At least three biological replicates were repeated for the dose response and checkerboard assays.

[2] = Qualitative assay for antibiotic-Fe3+ coloured complexes; assay type: physicochemical; conditions: stock antibiotic + FeCl3 final 10 μM; room temperature 1 h
Method: […]. Binding of iron by a compound causes spectral shifts that can detected visually. Five μL of stock concentration antibiotic was added to 5 μL of FeCl3 to a final FeCl3 concentration of 10 μM and incubated at room temperature for one hour. Negative controls without iron are indicated by a negative sign and droplets with FeCl3 are indicated with a positive sign; vehicle controls with Milli-Q H2O and DMSO were included.
Compounds were arrayed in Nunc 96 microwell plates. Vehicle controls contained Milli-Q H2O with 1:75 dilution of each compound at a final concentration of […]. The experimental set-up contained the same components as the vehicle control, with the addition of […] FeCl3. The final volume in each well was 150 μL. The plate was incubated at room temperature for one hour and absorption spectra from 300 nm to 700 nm was read in 2 nm increments (Multiskan Go—Thermo Fisher Scientific). […]

[3] = Chrome azurol S (CAS) plate assay; assay type: physicochemical; conditions: 10 μL of 2 mg/mL; room temperature 1 h
[4] = aqueous media
[5] = test system: Acinetobacter baumannii clinical isolates; assay: Clinical isolates testing, A. baumannii; assay type: cell-based; conditions: 10:90
Method: (§2) Clinical isolates of P. aeruginosa and A. baumannii were inoculated from −80° C. stocks into 200 μL LB broth and grown with shaking at 200 rpm, 16 h, 37° C. in Nunc 96-well plates. The overnight cultures were subcultured (1:25 dilution) into 10:90 and grown with shaking at 200 rpm, 2 h, 37° C. Vehicle controls consisted of 4 μL of DMSO, 144 μL 10:90 and 2 μL of subculture. Sterile controls consisted of 4 μL of DMSO and 146 μL 10:90. […]. The final volume of each well was 150 μL and each checkerboard was repeated at least three times. Plates were incubated with shaking at 200 rpm, 16 h, 37° C. and OD600 was measured (Multiskan Go—Thermo Fisher Scientific). The results were plotted as percent of control (wells containing only DMSO) using Prism (GraphPad).
(§3) Clinical isolates were grown and tested as described in Example 1. Briefly, clinical isolates were inoculated from glycerol stocks stored at −80° C. into Nunc 96-well plates and grown overnight at 37° C., for 16 h with shaking in LB (200 rpm). Overnights were subcultured (1:25) into fresh 10:90 medium and grown for 2 h under the same growth conditions. Subcultures were diluted 1:75 in fresh 10:90. Compounds were diluted 1:75 to obtain the final concentration. DOXY and CLI were added at a final concentration of 1 μg/mL, CO was used at 2 μg/mL, TRO was used at 4 μg/mL, TS was used at 8.3 μg/mL, and DSX was used at 32 μg/mL. Vehicle and sterility controls were included. Plates were incubated overnight with the same conditions. The OD600 was read (Multiscan Go—Thermo Fisher Scientific), analyzed using Excel, and the data plotted using Prism (GraphPad).
(§4) Culture conditions, checkerboard assays using P. aeruginosa PA14 and dose-response assays were performed as described in Example 1. In addition to TS, other thiopeptides tested were siomycin A (SM), thiocillin I (TC), micrococcin P1 (MC), nosiheptide (NH), berninamycin A (BER), and geninthiocin A (GEN). For dose response assays of the combinations conducted in 10:90, DSX concentration was constant at 64 μg/mL.

[6] = test system: P. aeruginosa clinical isolates; assay: Clinical isolates testing, P. aeruginosa; assay type: cell-based, Pseudomonas aeruginosa
Method: as §2, §3, §4

P. aeruginosa PA14 [7] = assay: Checkerboards pinned to LB agar (bactericidal activity); assay type: cell-based, Pseudomonas aeruginosa; conditions: overnight 37° C.
Method: Checkerboards were pinned to LB agar plates using a sterile 96 pin tool. Plates were incubated overnight at 37° C. Independent experiments were conducted 3 times and a representative plate is shown.

[8] = UV-Vis absorption spectra assay for iron chelation; assay type: physicochemical; conditions: 300 μM compound and FeCl3; 300-700 nm; 1 h
Method: Equimolar concentrations of compound and FeCl3 were added in deionized H2O to a final concentration of 300 μM and a spectrum of wavelengths from 300 nm to 700 nm read after 1 h incubation at room temperature. The black dashed line is the spectrum of the compound in the absence of iron. The black solid line is the spectrum after the addition of iron. […] Chloramphenicol and ampicillin were used as negative controls. Each assay was performed at least 3 times and averaged values are shown.
Compounds were arrayed in Nunc 96 microwell plates. Vehicle controls contained Milli-Q H2O with 1:75 dilution of each compound at a final concentration of […]. The experimental set-up contained the same components as the vehicle control, with the addition of […] FeCl3. The final volume in each well was 150 μL. The plate was incubated at room temperature for one hour and absorption spectra from 300 nm to 700 nm was read in 2 nm increments (Multiskan Go—Thermo Fisher Scientific).

P. aeruginosa PAO1 = assay: Checkerboard assays of TS with DFP, DSX or 10% serum; assay type: cell-based, Pseudomonas aeruginosa; conditions: 10:90
Method: Human serum (Corning) and mouse serum (Equitech-Bio) were stored at −20° C. Sera were aliquoted into 5-ml culture tubes by thawing once at 37° C. for 30 min with occasional gentle mixing. Culture tubes were frozen at −20° C. until use. To make 10% serum solutions, serum was thawed for 10 min at 37° C. and then heat inactivated at 57° C. for 30 min. Two milliliters of heat-inactivated serum were added to 18 ml of 10:90 medium and gently mixed. This 10% serum solution was used for checkerboard assays.
as §1

[9] = Pseudomonas aeruginosa, concentration used in clinical isolate testing, read-out: ⅛^th the MIC of PA14

O=C(O)c1cn(C2CC2)c2cc(N3CCNCC3)c(F)cc2c1=O [CIP, ciprofloxacin]
synergy with DSX (P. aeruginosa PA14 [1]; checkerboard of DSX with antibiotic): No synergy
colour change upon addition of FeCl3 [2]: formed orange complexes

Oc1c(I)cc(Cl)c2cccnc12 [CLI, Clioquinol]
interaction with DSX (P. aeruginosa PA14 [1]): antagonism
one-eighth of MIC against PA14 (test concentration) (P. aeruginosa PA14 [1]; [9]): 1 µg/mL
effect of 100 μM Fe^3+ on inhibitory activity (P. aeruginosa PA14 [1]): abrogated
synergy with TS (P. aeruginosa PA14 [1]; checkerboard): synergized
relative potency of synergy with TS (P. aeruginosa PA14 [1]): most potent synergy
decolourization of CAS agar (relative affinity for iron) [3]: Decolourization was not observed
concentrations at which the compound precipitated [4]: above 8 μg/mL
susceptibility of A. baumannii strain C0286 [5]: susceptible
growth of C0379 with CLI at 8 μg/mL ([6]; TS 8.3 and DSX 32 μg/mL where combined): did not reduce growth below MIC
mode of activity of compound alone (P. aeruginosa PA14 [7]): bacteriostatic

Cc1cc(C2CCCCC2)n(O)c(=O)c1 [CO, Ciclopirox Olamine]
interaction with DSX (P. aeruginosa PA14 [1]): indifferent
one-eighth of MIC against PA14 (test concentration) (P. aeruginosa PA14 [1]; [9]): 2 µg/mL
effect of 100 μM Fe^3+ on inhibitory activity (P. aeruginosa PA14 [1]): abrogated
synergy with TS (P. aeruginosa PA14 [1]; checkerboard): synergized
interaction with GN (P. aeruginosa PA14 [1]; checkerboard): antagonism
relative potency of synergy with TS (P. aeruginosa PA14 [1]): most potent synergy; also recorded: greater synergy
decolourization of CAS agar (relative affinity for iron) [3]: greatest decolourization
growth of C0379, triple combinations with TS+DSX at higher concentrations of the compound ([6]; TS 8.3 and DSX 32 μg/mL): could inhibit its growth
absorption spectrum after addition of FeCl3 [8]: showed shifts in their absorption spectra
mode of activity of compound alone (P. aeruginosa PA14 [7]): bacteriostatic

CO/N=C(\C(=O)N[C@@H]1C(=O)N2C(C(=O)O)=C(CSc3nc(=O)c(=O)[nH]n3C)CS[C@H]12)c1csc(N)n1 [Ceftriaxone, ceftriaxone]
colour change upon addition of FeCl3 [2]: turned red
absorption spectrum after addition of FeCl3 [8]: did not change

Cc1c(O)c(=O)ccn1C [DFP, deferiprone]
colour change upon addition of FeCl3 [2]: dark red/violet
effect of chelator on TS activity (P. aeruginosa PAO1; checkerboard with TS): potentiated TS activity
activity of chelator on its own against P. aeruginosa (P. aeruginosa PAO1; checkerboard, up to 512 μg/ml): neither chelator had activity
absorption spectrum after addition of FeCl3 [8]: shifted

CCn1cc(C(=O)O)c(=O)c2cnc(N3CCNCC3)nc21 [Pipemidic acid]
colour change upon addition of FeCl3 [2]: formed orange complexes
absorption spectrum after addition of FeCl3 [8]: shifted

O=c1cccccc1O [TRO, Tropolone]
interaction with DSX (P. aeruginosa PA14 [1]): indifferent
MIC (P. aeruginosa PA14 [1]; [9]): 4 µg/mL
effect of 100 μM Fe^3+ on inhibitory activity (P. aeruginosa PA14 [1]): abrogated
synergy with TS (P. aeruginosa PA14 [1]; checkerboard): synergized
relative potency of synergy with TS (P. aeruginosa PA14 [1]): greater synergy
decolourization of CAS agar (relative affinity for iron) [3]: greatest decolourization
susceptibility of C0379 compared to PA14 [6]: less susceptible
absorption spectrum after addition of FeCl3 [8]: showed shifts in their absorption spectra
mode of activity of compound alone (P. aeruginosa PA14 [7]): bacteriostatic

COc1cc(Cc2cnc(N)nc2N)cc(OC)c1OC [Trimethoprim]
colour change upon addition of FeCl3 [2]: turned golden-yellow
